# According to US10662187B2, “Bruton's tyrosine kinase inhibitors” (Zibo Biopolar Changsheng Pharmaceutical Co. Ltd., priority 2016, dated 2020):
# Biological target: BTK (Homo sapiens (Human), UniProt Q06187)
# Experiment: Btk kinase assay (HTRF)
# Format: biochemical
# Settings: not given
# Method: Btk Kinase Assay and Other Kinases Assay Btk kinase activity was determined using a homogenous time resolved fluorescence (HTRF) methodology. Measurements were performed in a reaction volume of 15 μL using 384-well assay plates. Kinase enzyme, inhibitor, ATP and 1 μM peptide substrate were incubated in a reaction buffer compose of Hepes 50 mM (pH7.0), NaN3 0.02%, BSA 0.01%, Orthocanadate 0.1 mM. […] For each compound, enzyme activity as measured at various concentrations of compound, Negative control reactions were performed in the absence of inhibitor in two replicates and eight no enzyme controls were used to determine baseline fluorescence levels.
# Sequence of BTK (Q06187 whole entry, species assumed): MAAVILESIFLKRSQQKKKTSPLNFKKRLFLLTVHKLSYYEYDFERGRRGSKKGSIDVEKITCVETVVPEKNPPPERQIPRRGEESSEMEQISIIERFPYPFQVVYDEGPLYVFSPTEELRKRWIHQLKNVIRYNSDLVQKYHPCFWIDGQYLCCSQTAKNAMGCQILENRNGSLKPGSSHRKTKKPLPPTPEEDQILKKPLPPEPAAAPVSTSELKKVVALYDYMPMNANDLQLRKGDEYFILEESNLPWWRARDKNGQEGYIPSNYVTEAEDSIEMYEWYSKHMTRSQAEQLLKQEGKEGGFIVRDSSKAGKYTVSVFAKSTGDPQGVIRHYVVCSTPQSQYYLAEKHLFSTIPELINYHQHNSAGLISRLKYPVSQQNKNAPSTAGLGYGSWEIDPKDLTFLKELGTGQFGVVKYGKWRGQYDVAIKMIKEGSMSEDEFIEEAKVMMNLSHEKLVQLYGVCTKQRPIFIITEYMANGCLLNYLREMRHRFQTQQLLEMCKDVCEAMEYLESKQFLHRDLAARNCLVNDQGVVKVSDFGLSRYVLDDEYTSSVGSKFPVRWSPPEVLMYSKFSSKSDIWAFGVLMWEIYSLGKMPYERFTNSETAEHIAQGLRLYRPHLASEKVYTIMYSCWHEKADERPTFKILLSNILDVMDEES
row,Compound,IC50 [µM]
1,"COc1cccc(Oc2ccc(-c3nn([C@@H]4CCCC(C(=O)O)C4)c4c(OC)cncc34)cc2)c1F (stereo partly drawn) [Compound 121, (3R)-3-(3-(4-(2-fluoro-3-methoxyphenoxy)phenyl)-7-methoxy-1H-pyrazolo[4,3-c]pyridin-1-yl)cyclohexanecarboxylic acid]",0.01 to 0.1

# Same assay, conditions: [ATP]=80 μM, BTK=3.4 nM; read-out: BTK Inhibition
row,Compound,IC50 [µM]
1,"C=CC(=O)N1CC[C@@H](n2nc(-c3ccc(Oc4cccc5c4CCC5)cc3)c3cnccc32)C1 [Compound 31, (R)-1-(3-(3-(4-((2,3-dihydro-1H-inden-4-yl)oxy)phenyl)-1H-pyrazolo[4,3-c]pyridin-1-yl)pyrrolidin-1-yl)prop-2-en-1-one]",0.01 to 0.1
2,"C=CC(=O)N1CC[C@@H](n2nc(-c3ccc(C(=O)NCc4cccc(OC)c4)cc3)c3cnccc32)C1 [Compound 103, (R)-4-(1-(1-acryloylpyrrolidin-3-yl)-1H-pyrazolo[4,3-c]pyridin-3-yl)-N-(3-methoxybenzyl)benzamide]",0.1 to 1
3,"C=CC(=O)N1CC[C@H](n2nc(-c3ccc(Oc4cccc(Cl)c4)cc3)c3cnccc32)C1 [Compound 36, (S)-1-(3-(3-(4-(3-chlorophenoxy)phenyl)-1H-pyrazolo[4,3-c]pyridin-1-yl)pyrrolidin-1-yl)prop-2-en-1-one]",0.01 to 0.1
4,"C=CC(=O)N1CC[C@@H](n2nc3ccncc3c2-c2ccc(-c3cccc(C)c3)cc2)C1 [Compound 108, (R)-1-(3-(3-(3′-methyl-[1,1′-biphenyl]-4-yl)-2H-pyrazolo[4,3-c]pyridin-2-yl)pyrrolidin-1-yl)prop-2-en-1-one]",0.1 to 1
5,"O=C(Nc1ccc(-c2nn(C3CCC(C(=O)O)CC3)c3ccncc23)cc1)c1ccccc1 (stereo not shown) [Compound 123, 4-(3-(4-benzamidophenyl)-1H-pyrazolo[4,3-c]pyridin-1-yl)cyclohexanecarboxylic acid]",> 10
6,"C=CC(=O)N1CCCC(Cn2nc(-c3ccc(Oc4ccccc4)cc3)c3cnccc32)C1 (stereo not shown) [Compound 53, 1-(3-((3-(4-phenoxyphenyl)-1H-pyrazolo[4,3-c]pyridin-1-yl)methyl)piperidin-1-yl)prop-2-en-1-one]",0.01 to 0.1
7,"C=CC(=O)N1CC[C@@H](n2nc(-c3ccc(Oc4cccc(C)c4)cc3)c3cnccc32)C1 [Compound 10, (R)-1-(3-(3-(4-(m-tolyloxy)phenyl)-1H-pyrazolo[4,3-c]pyridin-1-yl)pyrrolidin-1-yl)prop-2-en-1-one]",0.01 to 0.1
8,"C=CC(=O)N1CCC[C@@H](n2nc(-c3ccc(NC(=O)c4cccc(C(F)(F)F)c4)cc3)c3cnccc32)C1 [Compound 117, (R)-N-(4-(1-(1-acryloylpiperidin-3-yl)-1H-pyrazolo[4,3-c]pyridin-3-yl)phenyl)-3-(trifluoromethyl)benzamide]",0.01 to 0.1
9,"C=CC(=O)N1CCC[C@@H](n2nc(-c3ccc(Oc4cccc(OC)c4OCCC)cc3)c3cncc(OCCC)c32)C1 [Compound 88, (R)-1-(3-(3-(4-(3-methoxy-2-propoxyphenoxy)phenyl)-7-propoxy-1H-pyrazolo[4,3-c]pyridin-1-yl)piperidin-1-yl)prop-2-en-1-one]",0.01 to 0.1
10,"C=CC(=O)N1CCC[C@@H](n2nc(-c3ccc(Oc4ccccc4)cc3)c3c(N)cccc32)C1 [Compound 55, (R)-1-(3-(4-amino-3-(4-phenoxyphenyl)-1H-indazol-1-yl)piperidin-1-yl)prop-2-en-1-one]",0.01 to 0.1
11,"C=CC(=O)N1CCC[C@H](n2nc(-c3ccc(Oc4ccccc4)c(Cl)c3)c3cnccc32)C1 [Compound 35, (S)-1-(3-(3-(3-chloro-4-phenoxyphenyl)-1H-pyrazolo[4,3-c]pyridin-1-yl)piperidin-1-yl)prop-2-en-1-one]",0.01 to 0.1
12,"C=CC(=O)N1CCC[C@@H](n2nc(-c3ccc(Oc4cccc(OC)c4F)cc3)c3cncc(OC(C)C)c32)C1 [Compound 96, (R)-1-(3-(3-(4-(2-fluoro-3-methoxyphenoxy)phenyl)-7-isopropoxy-1H-pyrazolo[4,3-c]pyridin-1-yl)piperidin-1-yl)prop-2-en-1-one]",0.01 to 0.1
13,"C=CC(=O)N1CCC[C@H](n2nc(-c3ccc(C(=C)c4ccccc4)cc3)c3cnccc32)C1 [Compound 95, (S)-1-(3-(3-(4-(1-phenylvinyl)phenyl)-1H-pyrazolo [4,3-c]pyridin-1-yl)piperidin-1-yl)prop-2-en-1-one]",0.01 to 0.1
14,"C=CC(=O)N1CC[C@@H](n2nc(-c3ccc(Oc4cccc(OC)c4F)cc3)c3cncc(C)c32)C1 [Compound 5, (R)-1-(3-(3-(4-(2-fluoro-3-methoxyphenoxy)phenyl)-7-methyl-1H-pyrazolo [4,3-c]pyridin-1-yl)pyrrolidin-1-yl) prop-2-en-1-one]",< 0.01
15,"C=CC(=O)N1CC[C@@H](n2nc(-c3ccc(Oc4cccc5ccccc45)cc3)c3cnccc32)C1 [Compound 7, (R)-1-(3-(3-(4-(naphthalen-1-yloxy)phenyl)-1H-pyrazolo[4,3-c]pyridin-1-yl)pyrrolidin-1-yl)prop-2-en-1-one]",0.01 to 0.1
16,"C=CC(=O)N1CCC[C@H](n2nc(-c3ccc(Oc4cccc(F)c4Cl)cc3)c3cnccc32)C1 [Compound 40, (S)-1-(3-(3-(4-(2-chloro-3-fluorophenoxy)phenyl)-1H-pyrazolo[4,3-c]pyridin-1-yl)piperidin-1-yl)prop-2-en-1-one]",0.01 to 0.1
17,"C=CC(=O)N1CCC[C@@H](n2nc(-c3ccc(Oc4cccc(C)c4F)cc3)c3cnccc32)C1 [Compound 48, (R)-1-(3-(3-(4-(2-fluoro-3-methylphenoxy)phenyl)-1H-pyrazolo[4,3-c]pyridin-1-yl)piperidin-1-yl)prop-2-en-1-one]",0.01 to 0.1
18,"O=C(O)C1CCC(n2nc(-c3ccc(-c4ccccc4)cc3)c3cnccc32)CC1 (stereo not shown) [Compound 124, 4-(3-([1,1′-biphenyl]-4-yl)-1H-pyrazolo[4,3-c]pyridin-1-yl)cyclohexanecarboxylic acid]",> 10
19,"C=CC(=O)N1CCC[C@@H](n2nc(-c3ccc(OC4CCCCC4)cc3)c3cnccc32)C1 [Compound 29, (R)-1-(3-(3-(4-(cyclohexyloxy)phenyl)-1H-pyrazolo[4,3-c]pyridin-1-yl)piperidin-1-yl)prop-2-en-1-one]",0.01 to 0.1
20,"C=CC(=O)N1CCC[C@@H](n2nc(-c3ccc(Oc4cccc(F)c4OC)cc3)c3cnccc32)C1 [Compound 50, (R)-1-(3-(3-(4-(3-fluoro-2-methoxyphenoxy)phenyl)-1H-pyrazolo[4,3-c]pyridin-1-yl)piperidin-1-yl)prop-2-en-1-one]",0.01 to 0.1

# Next, values leading:
row,IC50 [µM],Compound
1,0.01 to 0.1,"C=CC(=O)N1CCC[C@@H](n2nc(-c3ccc(Oc4cccc(OC)c4C)cc3)c3cnccc32)C1 [Compound 57, (R)-1-(3-(3-(4-(3-methoxy-2-methylphenoxy)phenyl)-1H-pyrazolo[4,3-c]pyridin-1-yl)piperidin-1-yl)prop-2-en-1-one]"
2,< 0.01,"C=CC(=O)N1CCC[C@@H](n2nc(-c3ccc(Oc4cccc(OC)c4F)cc3)c3cncc(OCCN(C)C)c32)C1 [Compound 93, (R)-1-(3-(7-(2-(dimethylamino)ethoxy)-3-(4-(2-fluoro-3-methoxyphenoxy)phenyl)-1H-pyrazolo[4,3-c]pyridin-1-yl)piperidin-1-yl)prop-2-en-1-one]"
3,0.01 to 0.1,"COc1cccc(Oc2ccc(-c3nn(CC4CCCN4C(=O)/C(C#N)=C/C(C)(C)C)c4c(OC)cncc34)cc2)c1F (stereo not shown) [Compound 92, (E)-2-(2-((3-(4-(2-fluoro-3-methoxyphenoxy)phenyl)-7-methoxy-1H-pyrazolo[4,3-c]pyridin-1-yl)methyl)pyrrolidine-1-carbonyl)-4,4-dimethylpent-2-enenitrile]"
4,0.01 to 0.1,"C=CC(=O)N1CCC[C@@H](n2nc(-c3ccc(Oc4ccccc4)c(F)c3)c3cnccc32)C1 [Compound 51, (R)-1-(3-(3-(3-fluoro-4-phenoxyphenyl)-1H-pyrazolo[4,3-c]pyridin-1-yl)piperidin-1-yl)prop-2-en-1-one]"
5,< 0.01,"C=CC(=O)N1CC[C@@H](n2nc(-c3ccc(Oc4cccc(OC)c4F)cc3)c3cncc(C(F)F)c32)C1 [Compound 67, (R)-1-(3-(7-(difluoromethyl)-3-(4-(2-fluoro-3-melhoxyphenoxy)phenyl)-1H-pyrazolo[4,3-c]pyridin-1-yl)pyrrolidin-1-yl)prop-2-en-1-one]"
6,0.01 to 0.1,"COc1cccc(Oc2ccc(-c3nn([C@@H]4CCCN(C(=O)C(=O)O)C4)c4c(OC)cncc34)cc2)c1F [Compound 119, (R)-2-(3-(3-(4-(2-fluoro-3-methoxyphenoxy)phenyl)-7-methoxy-1H-pyrazolo[4,3-c]pyridin-1-yl)piperidin-1-yl)-2-oxoacetic acid]"
7,< 0.01,"C=CC(=O)N1CC[C@@H](n2nc(-c3ccc(Oc4cccc(OC)c4F)cc3)c3cncc(C#N)c32)C1 [Compound 28, (R)-1-(1-acryloylpyrrolidin-3-yl)-3-(4-(2-fluoro-3-methoxyphenoxy)phenyl)-1H-pyrazolo[4,3-c]pyridine-7-carbonitrile]"
8,< 0.01,"C=CC(=O)N1CC[C@@H](n2nc(-c3ccc(Oc4cccc(OC)c4Cl)cc3)c3cncc(F)c32)C1 [Compound 68, (R)-1-(3-(3-(4-(2-chloro-3-methoxyphenoxy)phenyl)-7-fluoro-1H-pyrazolo [4,3-c]pyridin-1-yl)pyrrolidin-1-yl)prop-2-en-1-one]"
9,< 0.01,"C=CC(=O)N1CC[C@@H](n2nc(-c3ccc(Oc4cccc(OC)c4Cl)cc3)c3cnccc32)C1 [Compound 13, (R)-1-(3-(3-(4-(2-chloro-3-methoxyphenoxy)phenyl)-1H-pyrazolo[4,3-c]pyridin-1-yl)pyrrolidin-1-yl)prop-2-en-1-one]"
10,< 0.01,"C=CC(=O)N1CC[C@H](n2nc(-c3ccc(Oc4cccc(Cl)c4Cl)cc3)c3cnccc32)C1 [Compound 42, (S)-1-(3-(3-(4-(2,3-dichlorophenoxy)phenyl)-1H-pyrazolo[4,3-c]pyridin-1-yl)pyrrolidin-1-yl)prop-2-en-1-one]"
